The text below walks through data of the supplement of paper PMC10307832.

One assay concerns NCI-H441. Put plainly: relative viability (nuclei count vs DMSO), 5 days (fraction); higher = more cells survive. Conditions: first compound 0.08 µM. The method, boiled down: (§1)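 Each reported value is a median over duplicate plates. It expresses relative viability: treated-well nuclei count divided by vehicle-well nuclei count. Lung cancer cell lines in 1536-well plates were dosed by pin tool a day after seeding, alone with one drug or with a fixed anchor-drug dose plus five library-drug doses (not always all listed) in √10 steps, and nuclei were counted after 5 days.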
`Oc1nc(-c2ccc(C(F)(F)F)cc2)nc2c1CSCC2` [XAV939] + CC(=O)c1c(C)c2cnc(Nc3ccc(N4CCNCC4)cn3)nc2n(C2CCCC2)c1=O [Palbociclib] (partner 0.5 µM) registered a relative viability of 0.222.
Same read-out and setting: under `C=C1C(=O)O[C@@H](CCCCCCCC)[C@@H]1C(=O)O` [C-75] + CC(=O)c1c(C)c2cnc(Nc3ccc(N4CCNCC4)cn3)nc2n(C2CCCC2)c1=O [Palbociclib] (partner 0.5 µM) stands 0.255; under `C=C1C(=O)O[C@@H](CCCCCCCC)[C@@H]1C(=O)O` [C-75] + Nc1ncn([C@H]2C[C@H](O)[C@@H](CO)O2)c(=O)n1 [Decitabine] (partner 2 µM), 0.299.

Staying with this assay, now noted: first compound 0.253 µM.
`Oc1nc(-c2ccc(C(F)(F)F)cc2)nc2c1CSCC2` [XAV939] + O=C(CCCCCCC(=O)Nc1ccccc1)NO [Vorinostat] (partner 1 µM): the relative viability is 0.822.
Still for that read-out and setting: the figure for `Oc1nc(-c2ccc(C(F)(F)F)cc2)nc2c1CSCC2` [XAV939] + O=C(c1cc(Cc2n[nH]c(=O)c3ccccc23)ccc1F)N1CCN(C(=O)C2CC2)CC1 [Olaparib] (partner 8 µM) is 0.448.
Same read-out and setting: the figure for `Oc1nc(-c2ccc(C(F)(F)F)cc2)nc2c1CSCC2` [XAV939] + CC(=O)c1c(C)c2cnc(Nc3ccc(N4CCNCC4)cn3)nc2n(C2CCCC2)c1=O [Palbociclib] (partner 0.5 µM) is 0.189; for `C=C1C(=O)O[C@@H](CCCCCCCC)[C@@H]1C(=O)O` [C-75] + CC(=O)c1c(C)c2cnc(Nc3ccc(N4CCNCC4)cn3)nc2n(C2CCCC2)c1=O [Palbociclib] (partner 0.5 µM) it is 0.255; for `C=C1C(=O)O[C@@H](CCCCCCCC)[C@@H]1C(=O)O` [C-75] + Nc1ncn([C@H]2C[C@H](O)[C@@H](CO)O2)c(=O)n1 [Decitabine] (partner 2 µM) it is 0.23.

The assay is the same for the next values; noted with them: first compound 0.8 µM.
Turning to `Oc1nc(-c2ccc(C(F)(F)F)cc2)nc2c1CSCC2` [XAV939] + O=C(CCCCCCC(=O)Nc1ccccc1)NO [Vorinostat] (partner 1 µM), the relative viability is 1.09.
`Oc1nc(-c2ccc(C(F)(F)F)cc2)nc2c1CSCC2` [XAV939] + O=C(c1cc(Cc2n[nH]c(=O)c3ccccc23)ccc1F)N1CCN(C(=O)C2CC2)CC1 [Olaparib] (partner 8 µM): the relative viability came out at 0.613.
On the same count and under the same terms, under `Oc1nc(-c2ccc(C(F)(F)F)cc2)nc2c1CSCC2` [XAV939] + CC(=O)c1c(C)c2cnc(Nc3ccc(N4CCNCC4)cn3)nc2n(C2CCCC2)c1=O [Palbociclib] (partner 0.5 µM) stands 0.182.
Still for that read-out and setting: under `C=C1C(=O)O[C@@H](CCCCCCCC)[C@@H]1C(=O)O` [C-75] + CC(=O)c1c(C)c2cnc(Nc3ccc(N4CCNCC4)cn3)nc2n(C2CCCC2)c1=O [Palbociclib] (partner 0.5 µM) stands 0.205; under `C=C1C(=O)O[C@@H](CCCCCCCC)[C@@H]1C(=O)O` [C-75] + Nc1ncn([C@H]2C[C@H](O)[C@@H](CO)O2)c(=O)n1 [Decitabine] (partner 2 µM), 0.287.

Staying with this assay, now noted: first compound 2.53 µM.
For the compound `Oc1nc(-c2ccc(C(F)(F)F)cc2)nc2c1CSCC2` [XAV939] + O=C(CCCCCCC(=O)Nc1ccccc1)NO [Vorinostat] (partner 1 µM), the relative viability amounted to 0.782.
Same read-out and setting: under `Oc1nc(-c2ccc(C(F)(F)F)cc2)nc2c1CSCC2` [XAV939] + O=C(c1cc(Cc2n[nH]c(=O)c3ccccc23)ccc1F)N1CCN(C(=O)C2CC2)CC1 [Olaparib] (partner 8 µM) stands 0.521; under `Oc1nc(-c2ccc(C(F)(F)F)cc2)nc2c1CSCC2` [XAV939] + CC(=O)c1c(C)c2cnc(Nc3ccc(N4CCNCC4)cn3)nc2n(C2CCCC2)c1=O [Palbociclib] (partner 0.5 µM), 0.189.

The assay is the same for the next values; noted with them: first compound 8 µM.
In the case of `C=C1C(=O)O[C@@H](CCCCCCCC)[C@@H]1C(=O)O` [C-75] + CC(=O)c1c(C)c2cnc(Nc3ccc(N4CCNCC4)cn3)nc2n(C2CCCC2)c1=O [Palbociclib] (partner 0.5 µM), the relative viability amounted to 0.184.
As for `C=C1C(=O)O[C@@H](CCCCCCCC)[C@@H]1C(=O)O` [C-75] + Nc1ncn([C@H]2C[C@H](O)[C@@H](CO)O2)c(=O)n1 [Decitabine] (partner 2 µM), the relative viability is 0.212.

For the next assay, the system named is LOU-NH91. The description is as above. To be noted: first compound 0.08 µM. Put shortly:
as §1
In the case of `Oc1nc(-c2ccc(C(F)(F)F)cc2)nc2c1CSCC2` [XAV939] + O=C(CCCCCCC(=O)Nc1ccccc1)NO [Vorinostat] (partner 1 µM), the relative viability was 0.952.
The same measure, in the same setting: the figure for `Oc1nc(-c2ccc(C(F)(F)F)cc2)nc2c1CSCC2` [XAV939] + O=C(c1cc(Cc2n[nH]c(=O)c3ccccc23)ccc1F)N1CCN(C(=O)C2CC2)CC1 [Olaparib] (partner 8 µM) is 0.923.
In turn, `Oc1nc(-c2ccc(C(F)(F)F)cc2)nc2c1CSCC2` [XAV939] + CC(=O)c1c(C)c2cnc(Nc3ccc(N4CCNCC4)cn3)nc2n(C2CCCC2)c1=O [Palbociclib] (partner 0.5 µM) came in with a relative viability of 0.609.
`C=C1C(=O)O[C@@H](CCCCCCCC)[C@@H]1C(=O)O` [C-75] + CC(=O)c1c(C)c2cnc(Nc3ccc(N4CCNCC4)cn3)nc2n(C2CCCC2)c1=O [Palbociclib] (partner 0.5 µM): the relative viability is 0.534.
For `C=C1C(=O)O[C@@H](CCCCCCCC)[C@@H]1C(=O)O` [C-75] + Nc1ncn([C@H]2C[C@H](O)[C@@H](CO)O2)c(=O)n1 [Decitabine] (partner 2 µM), the relative viability is 0.83.

The same assay, now with this note: first compound 0.253 µM.
Turning to `Oc1nc(-c2ccc(C(F)(F)F)cc2)nc2c1CSCC2` [XAV939] + O=C(CCCCCCC(=O)Nc1ccccc1)NO [Vorinostat] (partner 1 µM), the relative viability came out at 0.813.
Same read-out and setting: under `Oc1nc(-c2ccc(C(F)(F)F)cc2)nc2c1CSCC2` [XAV939] + O=C(c1cc(Cc2n[nH]c(=O)c3ccccc23)ccc1F)N1CCN(C(=O)C2CC2)CC1 [Olaparib] (partner 8 µM) stands 0.834; under `Oc1nc(-c2ccc(C(F)(F)F)cc2)nc2c1CSCC2` [XAV939] + CC(=O)c1c(C)c2cnc(Nc3ccc(N4CCNCC4)cn3)nc2n(C2CCCC2)c1=O [Palbociclib] (partner 0.5 µM), 0.54; under `C=C1C(=O)O[C@@H](CCCCCCCC)[C@@H]1C(=O)O` [C-75] + CC(=O)c1c(C)c2cnc(Nc3ccc(N4CCNCC4)cn3)nc2n(C2CCCC2)c1=O [Palbociclib] (partner 0.5 µM), 0.536.
With `C=C1C(=O)O[C@@H](CCCCCCCC)[C@@H]1C(=O)O` [C-75] + Nc1ncn([C@H]2C[C@H](O)[C@@H](CO)O2)c(=O)n1 [Decitabine] (partner 2 µM), the relative viability is 0.734.

The assay is the same for the next values; noted with them: first compound 0.8 µM.
In turn, `Oc1nc(-c2ccc(C(F)(F)F)cc2)nc2c1CSCC2` [XAV939] + O=C(CCCCCCC(=O)Nc1ccccc1)NO [Vorinostat] (partner 1 µM) registered a relative viability of 0.88.
For the compound `Oc1nc(-c2ccc(C(F)(F)F)cc2)nc2c1CSCC2` [XAV939] + O=C(c1cc(Cc2n[nH]c(=O)c3ccccc23)ccc1F)N1CCN(C(=O)C2CC2)CC1 [Olaparib] (partner 8 µM), the relative viability came to 0.908.
